# Test results: patent publication US20070111251A1, “Chemical address tags” (priority 2003, published 2007)
# Assays:
# [1] = Additive decomposition of peak excitation and emission wavelengths (model coefficients of A and B groups); details: for αi^em: influence of A group on peak emission wavelength; for αi^em / αi^ex: A group 1 as baseline; for αi^ex: influence of A group on peak excitation wavelength
# Description: The chemical structure of the styryl library is illustrated in FIG. 3. […] Initial analysis focused on measurements of peak emission and excitation wavelength obtained for all styryl products showing a single, localized peak (there were 256 such compounds for emission wavelength, and 193 compounds for excitation wavelength). […] The wavelength for the styryl compound formed by joining A group i with B group j is denoted as λij (or more specifically, λij^ex for excitation wavelength and λij^em for emission wavelength). The additive model λij=ai+βj+εij was fit to the data using least squares yielding parameters αi^ex, αi^em, βj^ex, and βj^em that quantify the influence of each A and B group on the spectrum of the styryl product. […] (FIGS. 8A-8B). […] The predictions were made ignoring interactions between the two functional moieties in the styryl compound. The predicted values were obtained without bias, by holding out the data point to be predicted when training the model.
# In preferred embodiments, using the cross-validation approach disclosed herein, each compound was held out in sequence, the model was trained using the remaining compounds, then the wavelength value for the held-out compound was predicted based on the resulting fitted model. This process produced correlations between measured and predicted values of ρ^em=0.78 (emission) and ρ^ex=0.69 (excitation).
# Based on this analysis, the contribution of the A and B functional groups to the fluorescence of the styryl product is quantified using the fitted coefficients αi^ex, βj^ex, […], and βj^em. Since these coefficients are on a scale without origin, in some embodiments, the invention uses the first A group and B group as a baseline, so […], β1^ex=0, and so on. Table 3 contains the model coefficients of all A and B groups for peak excitation and emission wavelength.
# Greater values of αi^ex, αi^em, βj^ex, and βj^em indicate greater peak wavelength. Greater values of αi^mito and […] indicate stronger mitochondrial localization. A groups 40 and 41 were not screened for localization. A groups 2, 29, and 33 only formed fluorescent products with a single B group, so were not included in the spectral analysis.
# In some embodiments, the wavelength values for peak excitation and emission were fit to the additive model λij=αi+βj+εij, where εij denotes error that is made as small as possible in the fitting process. Using least squares to minimize the function [formula] over all compounds having experimental data yields coefficient estimates αi for each A group and βj for each B group. One set of coefficient estimates is obtained for the excitation values and another set is obtained for the emission values. To predict the wavelength of a new compound formed from A and B groups i* and j* the sum αi*+βj* is used.
# In some embodiments, for both the spectral and localization analysis, cross-validation was used to obtain unbiased estimates of the prediction performance. Each compound was held out in sequence, and the coefficients αi and βj were fit to the remaining compounds. These values were then used to form a prediction for the held out compound, then the predicted and experimental values were compared to obtain a measure of the accuracy of prediction. Since the wavelength values are on a continuous scale, the predicted values were compared to the experimental values using Pearson correlation coefficients. The localization values are dichotomous, so the proportion of matching predictions was used to compare predicted and experimental localization values.
# mitochondria = experiment: QSLR factorial logistic regression of mitochondrial localization (affinity coefficients, cross-validated prediction); design: species or system human; details: for αi^mito: influence of A group on mitochondrial localization, greater = stronger; for estimated A group affinity coefficient ai: mitochondrial affinity, ±5 for groups always or never mitochondrial
# Description: The first column and first row contain the A group and B group labels. The second column and second row contain the estimated A group and B group affinity coefficients (ai and bj respectively). The interior of the table contains the value sij=ai+bj for each compound (where positive values of sij indicate predicted localization to mitochondria, and negative values of sij indicate predicted localization to a non-mitochondrial compartment). The subscript m indicates experimentally determined mitochondrial localization. The subscript o indicates experimentally determined non-mitochondrial localization. The darkened boxes indicate correctly predicted mitochondrial localizations under cross-validation.
# Based on this matrix, factorial logistic regression (See, A. Agresti, Categorical Data Analysis, Wiley [2002]) was used to calculate mitochondrial affinity coefficients (ai and bj) for each A and B moiety. (Table 1). Since it is not necessary to observe all possible pairings between A and B building blocks to estimate the affinity coefficients, the QSLR approach can predict localization of unmeasured styryl molecules based on a minimal set of experimentally-determined localizations (see Methods). The methods of the present invention allow assessment of predictivity using the cross-validation technique by holding out one compound and fitting the affinity coefficients using the remaining compounds, predictivity can be assessed by comparing the actual localization of the held-out compound to its predicted localization. Repeating this for every measured compound in the library yields an error rate for the procedure.
# Briefly, this technique assigns quantitative scores to each A group (αi^mito) and to each B group (βj^mito), in such a way that αi^mito+βj^mito is positive for compounds with mitochondrial localization, and is negative for compounds lacking mitochondrial localization. […] In additional embodiments, same analysis can be applied to organelles other than mitochondria, provided there are a sufficient number of localizations to specific non-mitochondrial organelles in the combinatorial library of interest for reliable statistical calculations.
# In certain embodiments, the predictive performance of the above method was assessed using a cross-validation approach by calculating the proportion of all compounds that are correctly predicted. For cross-validation, each styryl product was set aside in sequence, and the factorial logistic model was fit to the remaining data. Then the resulting A and B scores for the held-out compound were summed. If the sum was positive, the held-out compound was predicted to be mitochondrial, while if the sum was negative, the held-out compound was predicted to be non-mitochondrial. […] The baseline performance of the method scored 104 correct out of 145, or 72%. This number is highly statistically significant compared to random guessing (p-value ˜10^−7). Thus, across the entire library, A and B moieties appear to contribute to localization in an independent, additive fashion.
# In some embodiments, subcellular localization data were converted to binary (0/1) values by assigning a value Gij=1 if compound i,j localized to mitochondria (even if it localized to other […] as well), and assigning Gij=0 if compound i,j localized exclusively to any non-mitochondrial cellular structure. Compounds with no localization were omitted from this part of the analysis. The αi and βj coefficients for A or B groups that are always observed to localize to mitochondria, or that never localize to mitochondria, were set to +/−5, respectively. The binary localization data were analyzed using factorial logistic regression. […]
SMILES,αi^em [1] [nm],αi^ex [1] [nm],αi^mito (mitochondria),estimated A group affinity coefficient ai (mitochondria),influence of group on peak wavelength [1],influence of A group on mitochondrial localization (mitochondria)
Cc1ccccc1C=O [A group 7],38.5,−44.1,5.0,5.0,–,–
Cc1ccc(C=O)cc1 [A group 8],38.5,10.9,5.0,5.0,–,–
COc1ccccc1C=O [A group 9],−17.6,−36.7,5.0,5.0,–,–
COc1ccc(C=O)cc1 [A group 10],−23.7,8.1,1.3,1.3,–,–
COc1ccc(C=O)cc1OC [A group 11],−26.7,−14.3,5.0,5.0,–,–
O=Cc1ccc(OCc2ccccc2)c(OCc2ccccc2)c1 [A group 12],−22.7,−36.7,−3.3,−3.3,–,–
COc1cc(C=O)cc(OC)c1OC [A group 13],0.2,−44.2,5.0,5.0,–,–
COc1ccc(C=O)c2ccccc12 [A group 14],0.3,−1.6,−1.2,−1.2,–,–
COc1ccc(C=O)cc1O [A group 15],−33.1,−46.9,−0.6,−0.6,–,–
O=Cc1ccc(O)cc1 [A group 16],−24.8,−36.3,−1.9,−1.9,–,–
O=Cc1ccc(-c2ccccc2)cc1 [A group 17],−46.6,−14.3,−5.0,−5.0,bluer,mitochondrial repulsion
CC(=O)Nc1ccc(C=O)cc1 [A group 18],51.2,−24.3,0.8,0.8,strongly contribute towards the red end of the spectrum,–
CN(C)c1ccc(C=O)cc1 [A group 19],49.6,26.0,−0.2,−0.2,strongly contribute towards the red end of the spectrum,–
O=Cc1ccccc1[N+](=O)[O-] [A group 20],44.5,6.5,−2.7,−2.7,the far red shift is not observed,–
O=Cc1cccc([N+](=O)[O-])c1 [A group 21],21.6,−68.0,0.8,0.8,the far red shift is not observed,–
O=Cc1ccc([N+](=O)[O-])cc1 [A group 22],−10.3,−52.8,5.0,5.0,the far red shift is not observed,–
COc1ccc2ccccc2c1C=O [A group 23],−10.3,6.1,−5.0,−5.0,–,–
O=Cc1c[nH]c2ccccc12 [A group 24],−24.2,−7.2,−1.7,−1.7,–,–
CN(C)c1ccc(C=O)c2ccccc12 [A group 27],72.0,11.1,−0.3,−0.3,strongly contribute towards the red end of the spectrum,–
O=Cc1ccc2c(c1)Cc1ccccc1-2 [A group 28],44.9,2.4,−5.0,−5.0,–,–
O=Cc1ccccc1F [A group 29],−8.0,–,5.0,5.0,–,–
O=Cc1ccc(F)cc1 [A group 30],50.1,7.4,5.0,5.0,redder,mitochondrial attraction
O=Cc1c(F)c(F)c(F)c(F)c1F [A group 31],6.9,−22.4,5.0,5.0,–,–
O=Cc1cccc2ccccc12 [A group 32],−15.0,−36.1,5.0,5.0,–,–
O=Cc1ccc2ccccc2c1 [A group 33],−26.5,–,5.0,5.0,bluer,mitochondrial attraction
O=Cc1c2ccccc2cc2ccccc12 [A group 34],58.8,14.1,−5.0,5.0,redder,mitochondrial repulsion
O=CC=Cc1ccccc1 [A group 35],−8.3,0.0,−1.8,−1.8,–,–
O=CC=Cc1ccccc1[N+](=O)[O-] [A group 36],3.8,−25.3,5.0,5.0,the far red shift is not observed,–
